Data taken from patent US20230312605A1, “PYRROLO[2,1-F][1,2,4]TRIAZINES AND PREPARATION AND USES THEREOF” (BioSplice Therapeutics, Inc., priority 2021, published 2023).

These molecules were tested against recombinant DYRK1A kinase (Homo sapiens (Human), UniProt Q13627) (assay: DYRK1A kinase assay (Ser/Thr 18 peptide Z-lyte FRET assay)). Conditions: recombinant DYRK1A 0.25 µg/mL, ATP 15 µM, Ser/Thr peptide 18 4 µM, one hour at room temperature; table head prints EC50, method says IC50.
Assay type: biochemical
How it was run: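 Z-lyte FRET format: 1 h room-temperature reaction of 15 µM ATP, 4 µM Ser/Thr 18 peptide and 0.25 µg/mL recombinant human DYRK1A, in duplicate over 11 compound concentrations up to 10 µM. IC50 was derived by non-linear regression of percent phosphorylation calculated from coumarin/fluorescein emission ratios.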
`CC(C)CN1CC2(CC(Nc3ncc4c(-c5cnc6nccn6c5)ccn4n3)C2)C1` [Compound 1756, 5-(Imidazo[1,2-a]pyrimidin-6-yl)-N-(2-isobutyl-2-azaspiro[3.3]heptan-6-yl)pyrrolo [2,1-f][1,2,4]triazin-2-amine] was tested, and the EC50 was 18 nM.
For `CO[C@H]1C[C@@H](Nc2ncc3c(-c4ccc5nccnc5c4)ccn3n2)C1` [Compound 1375, N-(cis-3-Methoxycyclobutyl)-5-(quinoxalin-6-yl)pyrrolo[2,1-f][1,2,4]triazin-2-amine], the EC50 was 6 nM.
`FC(F)(F)C1(CNc2ncc3c(-c4cnc5nccn5c4)ccn3n2)CC1` [Compound 226, 5-(Imidazo[1,2-a]pyrimidin-6-yl)-N-((1-(trifluoromethyl)cyclopropyl)methyl)pyrrolo[2,1-f][1,2,4]triazin-2-amine] showed an EC50 of 11 nM.
With `Cc1nc2ccc(-c3ccn4nc(N[C@H]5CC[C@@](C)(O)CC5)ncc34)nc2n1CC(=O)N(C)C` [Compound 1872, 2-(5-(2-((cis-4-Hydroxy-4-methylcyclohexyl)amino)pyrrolo[2,1-f][1,2,4]triazin-5-yl)-2-methyl-3H-imidazo[4,5-b]pyridin-3-yl)-N,N-dimethylacetamide] the EC50 was 498 nM.
`Cc1nc2ncc(-c3ccn4nc(NC5CCN(C(=O)C(C)C)CC5)ncc34)cc2n1CC(F)F` [Compound 1888, 1-(4-((5-(1-(2,2-Difluoroethyl)-2-methyl-1H-imidazo[4,5-b]pyridin-6-yl)pyrrolo[2,1-f][1,2,4]triazin-2-yl)amino)piperidin-1-yl)-2-methylpropan-1-one] was tested, and the EC50 was 3 nM.
For `CCc1cnc2ncc(-c3ccn4nc(NCC(C)(C)F)ncc34)cn12` [Compound 429, 5-(3-Ethylimidazo[1,2-a]pyrimidin-6-yl)-N-(2-fluoro-2-methylpropyl) pyrrolo[2,1-f] [1,2,4]triazin-2-amine], the EC50 was 654 nM.
`Cc1nc2ncc(-c3ccn4nc(N[C@H]5CCN(C)C[C@H]5F)ncc34)cc2n1CC(F)F` [Compound 1887, 5-(1-(2,2-Difluoroethyl)-2-methyl-1H-imidazo[4,5-b]pyridin-6-yl)-N-((3R,4S)-3-fluoro-1-methylpiperidin-4-yl)pyrrolo[2,1-f][1,2,4]triazin-2-amine] gave an EC50 of 31 nM.
With `COCCO[C@H]1CC[C@@H](Nc2ncc3c(-c4cnc5nc(C)n(CC(F)F)c5c4)ccn3n2)CC1` [Compound 691, 5-(1-(2,2-Difluoroethyl)-2-methyl-1H-imidazo[4,5-b]pyridin-6-yl)-N-(cis-4-(2-methoxyethoxy)cyclohexyl)pyrrolo[2,1-f][1,2,4]triazin-2-amine] the EC50 was 3 nM.
Molecule `[2H]C([2H])([2H])O[C@H]1CC[C@@H](Nc2ncc3c(-c4ccc5nc(C)n(CC(F)F)c5n4)ccn3n2)CC1` [Compound 1803, 5-(3-(2,2-Difluoroethyl)-2-methyl-3H-imidazo[4,5-b]pyridin-5-yl)-N-(cis-4-(methoxy-d3)cyclohexyl)pyrrolo[2,1-f][1,2,4]triazin-2-amine] has an EC50 of 3 nM.
`Cc1nc2ccc(-c3ccn4nc(N[C@H]5CCN(C)C[C@@H]5F)ncc34)nc2n1CC(F)F` [Compound 1855, 5-(3-(2,2-Difluoroethyl)-2-methyl-3H-imidazo[4,5-b]pyridin-5-yl)-N-((3S,4S)-3-fluoro-1-methylpiperidin-4-yl)pyrrolo[2,1-f][1,2,4]triazin-2-amine] was tested, and the EC50 was 6 nM.
`Cc1nc2ccc(-c3ccn4nc(N[C@H]5CC[C@@H](C(=O)N6CC(F)(F)C6)CC5)ncc34)nc2n1CC(F)F` [Compound 1950, (3,3-Difluoroazetidin-1-yl)(cis-4-((5-(3-(2,2-difluoroethyl)-2-methyl-3H-imidazo[4,5-b]pyridin-5-yl)pyrrolo[2,1-f][1,2,4]triazin-2-yl)amino)cyclohexyl)methanone] was tested, and the EC50 was 3 nM.
Work on `Cc1nc2ncc(-c3ccn4nc(NC5CCN(CCF)CC5)ncc34)cc2n1CC(F)F` [Compound 1881, 5-(1-(2,2-Difluoroethyl)-2-methyl-1H-imidazo[4,5-b]pyridin-6-yl)-N-(1-(2-fluoroethyl)piperidin-4-yl)pyrrolo[2,1-f][1,2,4]triazin-2-amine] yielded an EC50 of 2 nM.
`FC(F)(F)O[C@H]1CC[C@@H](Nc2ncc3c(-c4cnc5ncccc5c4)ccn3n2)CC1` [Compound 1798, 5-(1,8-Naphthyridin-3-yl)-N-(cis-4-(trifluoromethoxy)cyclohexyl)pyrrolo [2,1-f][1,2,4]triazin-2-amine] gave an EC50 of 4 nM.
`Cc1nc2ccc(-c3ccn4nc(N[C@H]5CCN(C)C(=O)C5)ncc34)nc2n1CC(F)F` [Compound 1911, (S)-4-((5-(3-(2,2-Difluoroethyl)-2-methyl-3H-imidazo [4,5-b]pyridin-5-yl)pyrrolo[2,1-f] [1,2,4]triazin-2-yl)amino)-1-methylpiperidin-2-one] was tested, and the EC50 was 4 nM.
For `CC(C)(F)CNc1ncc2c(-c3ccc4ncccc4c3)ccn2n1` [Compound 1281, N-(2-Fluoro-2-methylpropyl)-5-(quinolin-6-yl)pyrrolo[2,1-f][1,2,4]triazin-2-amine], the EC50 was 15 nM.
In the case of `Cc1nc2ncc(-c3ccn4nc(NCC(C)(C)F)ncc34)cc2n1C1CC(F)(F)C1` [Compound 713, 5-(1-(3,3-Difluorocyclobutyl)-2-methyl-1H-imidazo[4,5-b]pyridin-6-yl)-N-(2-fluoro-2-methylpropyl)pyrrolo[2,1-f][1,2,4]triazin-2-amine], the EC50 is reported as 11 nM.
`CC(C)(CNc1ncc2c(-c3cnc4nccn4c3)ccn2n1)C(F)(F)F` [Compound 221, 5-(Imidazo[1,2-a]pyrimidin-6-yl)-N-(3,3,3-trifluoro-2,2-dimethylpropyl) pyrrolo[2,1-f][1,2,4]triazin-2-amine] was tested, and the EC50 was 29 nM.
With `Cn1nnc2ccc(-c3ccn4nc(NCC(C)(C)F)ncc34)cc21` [Compound 1210, N-(2-Fluoro-2-methylpropyl)-5-(1-methyl-1H-benzo[d][1,2,3]triazol-6-yl) pyrrolo[2,1-f][1,2,4]triazin-2-amine] the EC50 was 66 nM.
Work on `Cc1cnc2ncc(-c3ccn4nc(NCC(C)(C)F)ncc34)cn12` [Compound 358, N-(2-Fluoro-2-methylpropyl)-5-(3-methylimidazo[1,2-a]pyrimidin-6-yl) pyrrolo[2,1-f] [1,2,4]triazin-2-amine] yielded an EC50 of 25 nM.
With `Cc1nc2ccc(-c3ccn4nc(NC5CCC6(CC5)COC6)ncc34)nc2n1CC(F)F` [Compound 1961, 5-(3-(2,2-Difluoroethyl)-2-methyl-3H-imidazo[4,5-b]pyridin-5-yl)-N-(2-oxaspiro[3.5]nonan-7-yl)pyrrolo[2,1-f][1,2,4]triazin-2-amine] the EC50 was 3 nM.
With `C[C@]1(O)CC[C@@H](Nc2ncc3c(-c4cnc5ncccc5c4)ccn3n2)CC1` [Compound 1536, (1 s,4s)-4-((5-(1,8 -Naphthyridin-3-yl)pyrrolo [2,1-f] [1,2,4]triazin-2-yl)amino)-1-methylcyclohexan-1-ol] the EC50 was 5 nM.
Molecule `CC(=O)N1C[C@H](F)[C@H](Nc2ncc3c(-c4ccc5nc(C)n(CC(F)F)c5n4)ccn3n2)C1` [Compound 1941, 1-((3R,4S)-3-((5-(3-(2,2-Difluoroethyl)-2-methyl-3H-imidazo[4,5-b]pyridin-5-yl)pyrrolo[2,1-f] [1,2,4]triazin-2-yl)amino)-4-fluoropyrrolidin-1-yl)ethan-1-one] has an EC50 of 4 nM.
`Cc1nc2ccc(-c3ccn4nc(N[C@H]5C[C@](C)(O)C5)ncc34)nc2n1CC(F)F` [Compound 1835, trans-3-((5-(3-(2,2-Difluoroethyl)-2-methyl-3H-imidazo[4,5-b]pyridin-5-yl)pyrrolo[2,1-f][1,2,4]triazin-2-yl)amino)-1-methylcyclobutan-1-ol] gave an EC50 of 3 nM.
